In ChEMBL document CHEMBL1201862, “PubChem BioAssay data set” (2004):
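Grown in 96-well plates, cells were treated for 48 hours with each compound at five concentrations. Insufficient inhibition: endpoint recorded as highest concentration tested. At the GI50, growth is halved.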 The source made the active and inactive calls. Rule as the data show it: active = GI50 up to about 1.1 µM and inactive = higher.

Key:
Test in all cases: NCI tumour cell line growth inhibition, 48 h
A498 = system: A498
A549 = system: A549
CAKI-1 = system: CAKI-1
CCRF-CEM = system: CCRF-CEM
COLO 205 = system: COLO 205
EKVX = system: EKVX
HOP-92 = system: HOP-92
HT-29 = system: HT-29
LOX IMVI = system: LOX IMVI
MOLT-4 = system: MOLT-4
OVCAR-3 = system: OVCAR-3
SF-268 = system: SF-268
SF-295 = system: SF-295
SW-620 = system: SW-620
UACC-62 = system: UACC-62
SNB-19 = system: SNB-19

Measured: GI50

COc1cc(/C=C/C(=O)c2sc(NNC(C)=O)nc2C)ccc1O
inactive: A498 84.3 µM | A549 > 100 µM | CAKI-1 > 100 µM | CCRF-CEM > 100 µM | COLO 205 > 100 µM | EKVX > 100 µM | HOP-92 > 100 µM | HT-29 > 100 µM | LOX IMVI > 100 µM | MOLT-4 > 100 µM | OVCAR-3 > 100 µM | SF-268 > 100 µM | SF-295 > 100 µM | SW-620 > 100 µM | UACC-62 > 100 µM

CCCCC[C@@H]1CCCC2NC(CCCCCO[Si](c3ccccc3)(c3ccccc3)C(C)(C)C)CCC21 (stereo partly drawn)
inactive: A498 17.3 µM | A549 17.5 µM | CAKI-1 15.4 µM | CCRF-CEM 7.82 µM | EKVX 17.3 µM | HOP-92 10.1 µM | HT-29 4.28 µM | LOX IMVI 12.2 µM | MOLT-4 12.6 µM | OVCAR-3 16.6 µM | SF-268 17.9 µM | SF-295 16.9 µM | SNB-19 17.3 µM | SW-620 14.6 µM | UACC-62 19.5 µM

CCN(CC)c1ccc(/N=C2\C=C(Cl)C(=O)c3ncccc32)c(C)c1
inactive: A549 9.71 µM | CAKI-1 3.33 µM | CCRF-CEM 1.68 µM | COLO 205 4.2 µM | EKVX 11.2 µM | HOP-92 2.15 µM | HT-29 15.8 µM | LOX IMVI 5.15 µM | MOLT-4 2.88 µM | OVCAR-3 1.91 µM | SF-295 15.6 µM | SNB-19 21.3 µM | SW-620 4.05 µM | UACC-62 3.8 µM

C1=c2ccccc2=C2C(=C(c3ccccc3)C(c3ccccc3)=NN2c2ccccc2)S1
inactive: A498 > 100 µM | A549 > 100 µM | CAKI-1 > 100 µM | CCRF-CEM > 100 µM | COLO 205 > 100 µM | EKVX > 100 µM | HOP-92 > 100 µM | HT-29 > 100 µM | LOX IMVI > 100 µM | MOLT-4 > 100 µM | SF-268 > 100 µM | SF-295 > 100 µM | SNB-19 > 100 µM | SW-620 91.4 µM | UACC-62 > 100 µM

O=c1c(Sc2c(O)c3ccccc3c3ccccc3c2=O)c(O)c2ccccc2c2ccccc12
inactive: A549 44.6 µM | CAKI-1 80.4 µM | CCRF-CEM 14 µM | COLO 205 41.6 µM | EKVX 89.3 µM | HOP-92 29.3 µM | HT-29 66.2 µM | LOX IMVI 25.1 µM | MOLT-4 16.8 µM | OVCAR-3 44.6 µM | SF-268 20 µM | SF-295 55.7 µM | SNB-19 19.3 µM | SW-620 63.8 µM | UACC-62 29.2 µM

CCCCCC#COC1CC(C)CC[C@@H]1C(C)C (stereo partly drawn)
inactive: A549 56.5 µM | CAKI-1 50.8 µM | CCRF-CEM 15.4 µM | COLO 205 > 100 µM | EKVX 42.7 µM | HOP-92 > 100 µM | HT-29 59.4 µM | LOX IMVI 15.6 µM | OVCAR-3 > 100 µM | SF-268 > 100 µM | SF-295 39.2 µM | SNB-19 58.1 µM | SW-620 18.5 µM | UACC-62 62.7 µM

COc1ccc(O)c2c1C(=O)CCCC2=O
inactive: A498 > 100 µM | A549 > 100 µM | CAKI-1 > 100 µM | CCRF-CEM > 100 µM | COLO 205 > 100 µM | EKVX 40.1 µM | HT-29 > 100 µM | LOX IMVI > 100 µM | MOLT-4 > 100 µM | OVCAR-3 > 100 µM | SF-268 > 100 µM | SF-295 > 100 µM | SNB-19 > 100 µM | SW-620 > 100 µM | UACC-62 > 100 µM
